From patent US20200085814A1, “COMBINATION OF CERTINIB WITH AN EGFR INHIBITOR” (Novartis AG, priority 2014, published 2020) come the findings set out here.

Entries after “also recorded” stand apart in the source; their conditions may differ. Where two headings read alike, the source gives them in different places.

Experiment [1] relates to AKT phosphorylation in MGH051 cells. Briefly: Western blotting, MGH051 cells, ceritinib 4 hours or 8 days, inhibitors added for last day. The class given is cell-based. To be noted: MGH051 (FIG. 6); for rebound in AKT phosphorylation: added for the last day of long-term (8 days) ceritinib treatment. As to the method: (§1) FIG. 6. […] MGH051 cells were treated with ceritinib (LDK378) for 4 hours or 8 days.
(§2) The activated states of ALK and HER3 of multiple NSCLC cell lines that harbor EML4-ALK translocations were assessed in both short-term and long-term cultures.

The subject of experiment [2] is ERK phosphorylation in MGH051 cells. Briefly: Western blotting, MGH051 cells, inhibitors added for last day of long-term ceritinib treatment. The settings on record: added for the last day of long-term (8 days) ceritinib treatment, MGH051 (FIG. 6). It is filed as cell-based. As to the method: as §1, §2
In a further experiment the test system is NCI-H2228 cells. Kind of experiment: Secretome screening, CellTiter-Glo cell proliferation in presence of ceritinib. The class given is cell-based. To be noted: 0.5 μM ceritinib, conditioned supernatant, 96 hours. As to the method: NCI-H2228 was obtained from ATCC. The cell lines harbored EML4-ALK rearrangements. NCI-H2228 cells were cultured in RPMI-1640 (ATCC Catalog #30-2001) supplemented with 15% FBS.
Secretome screening was performed as described previously (Lito P, Pratilas C A, et al. Cancer Cell 2012; 22: 668-82). In brief, 317 cDNA constructs that represent 220 unique secreted proteins were reverse transfected into HEK293T cells individually and incubated 4 days to allow accumulation of secreted proteins in supernatant. The supernatant was transferred to the assay cells, namely NCI-H2228 cells, followed by addition of ceritinib to a final concentration of 0.5 μM. Cell proliferation was measured using CellTiter-Glo after 96 hours. Cells treated with DMSO in the absence of conditioned media and with ceritinib alone were used as controls.
The Cell Titer Glo assay was done with H2228 cell line. The cell line stems from adenocarcinoma; non-small cell lung cancer. Cell Titer Glo assay is a Cell Viability Assay that determined the number of viable cells in culture based on quantitation of the ATP present, which signaled the presence of metabolically active cells.
“Ceritinib no ligand” represents cells that were treated with ceritinib only (absence of any ligand) and represents the impact of ceritinib on cell viability. […]

Experiment [3] deals with MGH049 cells. Briefly: Cell proliferation assay (CellTiter-Glo), ceritinib dose response. The class given is cell-based. To be noted: 144 h; 0.3 μM ceritinib, 6 days, MGH049, relative to median DMSO signal; read-out: percent inhibition of cell proliferation. As to the method:
(§3) MGH049 and MGH051 were obtained from Massachusetts General Hospital (Friboulet L, Li N, et al. Cancer Discovery 2014; 4: 662-73). These cell lines harbor EML4-ALK rearrangements. MGH049 and MGH051 were cultured in DMEM (ATCC Catalog #30-2002) supplemented with 10% FBS.
(§4) To determine the dose-response relationship between the dose of ceritinib and the magnitude of its effect on cell proliferation, 1K MGH049 and 4K MGH051 cells were plated in each well of 384 well-plates, and grown for 24 hours prior to treatment. Cells were then treated with DMSO or ceritinib at concentrations ranging from 4 nM to 1 μM (3-fold dilutions). After 6 days, cell proliferation was measured using the CellTiter-Glo luminescent cell viability assay. Percent inhibition was calculated relative to median DMSO signal.

Experiment [4] has as its system MGH051 cells. The experiment is described as above. The settings on record: 144 h; 0.3 μM ceritinib, 6 days, MGH051, relative to median DMSO signal; read-out: percent inhibition of cell proliferation. It is filed as cell-based. As to the method:
as §3, §4

The test system of experiment [5] is MGH049 cells. Briefly: Cell proliferation (CellTiter-Glo), EGFR inhibitors with or without ceritinib. The class given is cell-based. As to the method: (§5) These cell lines harbor EML4-ALK rearrangements.
(§6) Three replicate plates were set up for each cell line and drug compound, with or without ceritinib. A representative dose response curve was then calculated by taking the mean across the 3 replicates with and without ceritinib. Proliferation inhibition values were normalized to the measured inhibition value at zero dose of the compound, with and without ceritinib.
(§7) Experiments performed with cell lines MGH049 and MGH051 are depicted on FIG. 3 and FIG. 4, respectively.

For experiment [6], the system named is HER3 phosphorylation in ALK positive NSCLC cell lines. Briefly: Western blotting of whole cell lysates after short-term and long-term ceritinib treatment. It is filed as cell-based. The settings on record: long-term treatment, 4 ALK positive cell lines (FIG. 5). As to the method: FIG. 5. […] Cells were harvested after short-term and long-term ceritinib (LDK378) treatment, and whole cell lysates were analyzed by Western blotting.
as §2

Experiment [7] has as its system MGH049 cells. Kind of experiment: Cell colony formation assay, crystal violet. The class given is cell-based. The settings on record: MGH049, 7 days; for cell growth inhibition as single agent (colony formation): ceritinib 0.5 μM or erlotinib 1 μM (FIG. 7); for anti-proliferative effect in combination with ceritinib versus ceritinib alone (colony formation): ceritinib 0.5 μM + erlotinib 1 μM (FIG. 7). The text has this: (§8) FIGS. 7A and 7B. […] For each cell line, all dishes were fixed, stained and photographed at the same time.

Experiment [8] deals with MGH051 cells. Kind of experiment: Cell colony formation assay, crystal violet. It is filed as cell-based. The settings on record: MGH051, 7 days; for cell growth inhibition as single agent (colony formation): ceritinib 0.5 μM or erlotinib 1 μM (FIG. 7); for anti-proliferative effect in combination with ceritinib versus ceritinib alone (colony formation): ceritinib 0.5 μM + erlotinib 1 μM (FIG. 7).
Description: as §8

Experiment [9] relates to MGH051 cells. As to the method: as §5, §6, §7
Experiment [10] has as its system HER3 activation in MGH051 cells. Briefly: Western blotting, MGH051 cells, inhibitors added for last day of long-term ceritinib treatment. The settings on record: added for the last day of long-term (8 days) ceritinib treatment, MGH051 (FIG. 6). It is filed as cell-based. As to the method:
FIG. 6. Addition of HER3 and EGFR inhibitors represses the rebound in AKT phosphorylation. MGH051 cells were treated with ceritinib (LDK378) for 4 hours or 8 days.
The activated states of ALK and HER3 of multiple NSCLC cell lines that harbor EML4-ALK translocations were assessed in both short-term and long-term cultures. […] In addition, the levels of pHER3 correlated with the duration of the treatments (FIG. 5). Next, we assessed the activation of the downstream signaling of HER3 and the repression of ceritinib-induced HER3 activation using various inhibitors.

Another experiment concerns H2228 tumors. Briefly: H2228 NSCLC xenograft efficacy. The class given is in vivo, female SCID-beige mice. As to the method:
In this experiment female SCID Beige mice bearing H2228 tumors were used. At start, the mice were 8 to 12 weeks of age. First, the mice were inoculated with 4 mm^3 H2228 tumor fragments by subcutaneous injection in flank. The fragments were dipped in Matrigel before implanting. When tumors reached an average size of 100-150 mm^3 the treatment according to the scheme below commenced. The body weight was measured daily for the first 5 days and then biweekly until end. The tumor was measured biweekly by caliper until end. […] Dosing with the compounds ended on study day 32. After this the tumor size was monitored during an observation phase for re-growth.
The average tumor volume data in the graphs is not complete through the end of the study for all groups. Once a group lost more than 50% of the animals due to death or ethical sacrifice, the average tumor volume for the remaining animals in these groups was no longer graphed.

With `CN(C)C/C=C/C(=O)Nc1cc2c(Nc3ccc(F)c(Cl)c3)ncnc2cc1O[C@H]1CCOC1` [afatinib, (S,E)-N-(4-((3-chloro-4-fluorophenyl)amino)-7-((tetrahydrofuran-3-yl)oxy)quinazolin-6-yl)-4-(dimethylamino)but-2-enamide], in experiment [1], the “rebound in AKT phosphorylation” value is reported as “able to suppress the rebound in AKT phosphorylation”. For the same compound, in experiment [2], the ERK phosphorylation result is given as “enhanced inhibition of ERK phosphorylation”.

As for `Cc1cc(Nc2ncc(Cl)c(Nc3ccccc3S(=O)(=O)C(C)C)n2)c(OC(C)C)cc1C1CCNCC1` [ceritinib, 5-chloro-N^2-(2-isopropoxy-5-methyl-4-(piperidin-4-yl)phenyl)-N^4-[2-(propane-2-sulfonyl)-phenyl]-pyrimidine-2,4-diamine], the “reversal of growth inhibitory effect of ceritinib by secreted ligands (cell viability)” value in the experiment with NCI-H2228 cells was “Ligands for EGFR and ERBB3 clearly overcame the inhibitory effect of ceritinib”. The inhibition at 0.3 µM in the experiment with MGH049 cells [3] amounted to 20%; in the experiment on MGH051 cells [4] it was 70%. Moreover, the “sensitivity of cell line to ceritinib alone” value with MGH049 cells [5] (MGH049, no ALK resistance mutations) is recorded as “resistant”. In experiment [6], the HER3 phosphorylation entry is “induction of HER3 phosphorylation; also recorded: up-regulation of HER3 phosphorylation”. For the same compound, the AKT phosphorylation entry in experiment [1] (ceritinib 8-day treatment) is “profound rebound in AKT phosphorylation”; in [1] (ceritinib initial (4 hours) treatment) it was “initial inhibition of AKT phosphorylation”. Moreover, the entries for the “cell growth inhibition as single agent (colony formation)” value in the experiment on MGH049 cells [7] and with MGH051 cells [8] were “less effective” and “partially effective”, respectively.

Turning to `Cc1cc(C(=O)Nc2nc3cccc(Cl)c3n2[C@@H]2CCCCN(C(=O)/C=C/CN(C)C)C2)ccn1` [compound A, (R,E)-N-(7-chloro-1-(1-(4-(dimethylamino)but-2-enoyl)azepan-3-yl)-1H-benzo[d]imidazol-2-yl)-2-methylisonicotinamide], the “cell growth, EGFR inhibitor in combination with ceritinib” value is on record as “synergistically reduced cell growth” in the experiment with MGH049 cells [5] (in combination with 0.5 μM ceritinib, 6 days, MGH049 (FIG. 3)) and “synergistically reduced cell growth” in the experiment with MGH051 cells [9] (in combination with 0.5 μM ceritinib, 6 days, MGH051 (FIG. 4)).

As for `C#Cc1cccc(Nc2ncnc3cc(OCCOC)c(OCCOC)cc23)c1` [erlotinib, N-(3-ethynylphenyl)-6,7-bis-(2-methoxyethoxy)quinazolin-4-amine], the “rebound in AKT phosphorylation” value in experiment [1] is “able to suppress the rebound in AKT phosphorylation”. Besides, the ERK phosphorylation entry in [2] is on record as “enhanced inhibition of ERK phosphorylation”. In addition, the “anti-proliferative effect in combination with ceritinib versus ceritinib alone (colony formation)” value is given as “greater anti-proliferative effect” in the experiment with MGH049 cells [7], “enhances the anti-proliferation activity of ceritinib” in the experiment on MGH049 cells [7] (listed as Erlotinib), “greater anti-proliferative effect” in the experiment on MGH051 cells [8] and “enhances the anti-proliferation activity of ceritinib” with MGH051 cells [8] (listed as Erlotinib). The “cell growth inhibition as single agent (colony formation)” value in the experiment with MGH049 cells [7] and in the experiment with MGH051 cells [8] was “no effect on cell growth” each time.

On to `CS(=O)(=O)CCNCc1ccc(-c2ccc3ncnc(Nc4ccc(OCc5cccc(F)c5)c(Cl)c4)c3c2)o1` [lapatinib, N-[3-chloro-4-(3-fluorobenzyloxy)phenyl]-6-{5-[4-(methylsulfonyl)-2-azabutyl]-2-furyl} quinazolin-4-amine], for which the “cell growth, EGFR inhibitor in combination with ceritinib” value with MGH049 cells [5] and with MGH051 cells [9] was “synergistically reduced cell growth” in each case.

On to “Antibody A: anti-HER3 antibody comprising the sequences of MOR10703 as defined in Table 1”, for which, in experiment [10], the “activation of HER3” value is “markedly suppressed”. The “rebound in AKT phosphorylation” value in [1] is given as “markedly suppressed”. In addition, the “efficacy (tumor volume) of LDK378 in combination with the antibody” value in the experiment with H2228 tumors (LDK378 25 or 50 mg/kg po qd × 32 + cetuximab 20 mg/kg ip biwk × 5 or Ab A 25 mg/kg ip qod × 17 (FIGS. 8A, 8B)) was “significantly improved efficacy of LDK378”. The “efficacy of ceritinib with Antibody A and cetuximab combined (triple combination)” value with H2228 tumors (ceritinib + Antibody A + cetuximab) is “significantly improve the efficacy of ceritinib”.
